By IC50 is commonly meant the midpoint of a concentration-inhibition curve. The low end stands for higher potency, the high end for lower potency.

This is an account of results in patent US20220024921A1, “1,3,4-OXADIAZOLONE COMPOUND AND PHARMACEUTICAL” (NIPPON SHINYAKU CO., LTD., priority 2018, published 2022).

SMILES strings stand for the structures. Counter-ions that a name gives are not always drawn.

Assay [1] has as its target T1, PIM1 serine/threonine kinase (Homo sapiens, UniProt P11309).
T1 construct: purchased Carna Bioscience, Inc
Put plainly: PIM1 serine/threonine kinase inhibitory effect. The class given is biochemical. The following applies: PIM1 serine/threonine kinase activity; ATP 40 μM; 30° C., 30 minutes. The method, boiled down: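 Recombinant PIM1 (0.15 μg/ml final) with 0.5 μM biotinylated substrate and 40 μM ATP in pH 7.0 HEPES/MgCl2 buffer, 30 min at 30° C. Compound range was 0.01–10000 nM final, n=2. HTRF detection with streptavidin-XL665 and anti-phospho antibody-cryptate, 1 h; IC50 from non-linear regression of the 665/620 ratio.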

The target in assay [2] is PIM1 transgenic cells (Ba/F3) (Homo sapiens, UniProt P11309). Description: Proliferation inhibitory effect on PIM1 transgenic cells. The following applies: proliferation inhibition, 72 hours, Cell Counting Kit-8, read-out: PIM1 IC50. The class given is cell-based, mouse. The method, boiled down: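 Mouse Ba/F3 pro-B cells were retrovirally transduced with human PIM1 so that their proliferation depends on PIM1. Cells were treated with compound at 1–10000 nM final for 72 h, then read by CCK-8 (OD450−OD650). Inhibition was set against DMSO (0%) and no-cell blank (100%), and IC50 was obtained by two-parameter logistic regression.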
Chain of PIM1 transgenic cells (Ba/F3) (P11309 whole entry, stated change not applied): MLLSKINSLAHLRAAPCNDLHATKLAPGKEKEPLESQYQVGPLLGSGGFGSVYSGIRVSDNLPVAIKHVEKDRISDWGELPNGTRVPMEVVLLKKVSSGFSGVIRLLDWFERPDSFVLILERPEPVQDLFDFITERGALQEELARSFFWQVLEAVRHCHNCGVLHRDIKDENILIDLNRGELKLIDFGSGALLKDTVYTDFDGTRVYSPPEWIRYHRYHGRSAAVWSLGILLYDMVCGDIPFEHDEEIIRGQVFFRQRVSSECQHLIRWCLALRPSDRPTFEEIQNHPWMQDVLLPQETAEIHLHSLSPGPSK
In general terms: Tetrazolium assays rely on reduction of a dye to a coloured formazan, in cell work by metabolically active cells.

T1 sequence (P11309 whole entry): as the sequence (P11309 whole entry, stated change not applied) above

Take `O=c1[nH]nc(-c2ccc(C(F)(F)F)c(N[C@@H](CF)C3CCNCC3)c2)o1` [Example 152, 5-[3-{[(1R)-2-fluoro-1-(piperidin-4-yl)ethyl]amino}-4-(trifluoromethyl)phenyl]-1,3,4-oxadiazol-2(3H)-one hydrochloride]: the IC50 in assay [1] is 3.3 nM. Besides, the GI50 in assay [2] was found to be 57 nM.

In assay [1], `C[C@H](Nc1cc(-c2n[nH]c(=O)o2)ccc1C(F)(F)F)[C@H]1C[C@@H](N)C1(C)C` [Example 153, 5-[3-({(1S)-1-[(1S,3R)-3-amino-2,2-dimethylcyclobutyl]ethyl}amino)-4-(trifluoromethyl)phenyl]-1,3,4-oxadiazol-2(3H)-one hydrochloride] had a half-maximal inhibitory concentration (IC50) of 3.1 nM. The GI50 in assay [2] worked out at 40 nM.

The compound `C[C@H](Nc1cc(-c2n[nH]c(=O)o2)ccc1Br)[C@H]1CC[C@H](N)CC1` [Example 154, 5-[3-({(1S)-1-[(1r,4S)-4-aminocyclohexyl]ethyl}amino)-4-bromophenyl]-1,3,4-oxadiazol-2(3H)-one hydrochloride] displayed an IC50 in assay [1] of 2.4 nM. In addition, in assay [2], the GI50 is 35 nM.

`C[C@H](Nc1cc(-c2n[nH]c(=O)o2)ccc1C(F)(F)F)[C@@H]1[C@@H]2CC[C@H]1CNC2` [Example 155, 5-[3-({(1S)-1-[(1R,5S,8r)-3-azabicyclo[3.2.1]octan-8-yl]ethyl}amino)-4-(trifluoromethyl)phenyl]-1,3,4-oxadiazol-2(3H)-one hydrochloride] had an IC50 in assay [1] of 5.8 nM. In addition, the GI50 in assay [2] came to 92 nM.

As for `C[C@H](Nc1cc(-c2n[nH]c(=O)o2)ccc1C(F)(F)F)[C@H]1[C@@H]2CC[C@H]1CNC2` [Example 156, 5-[3-({(1S)-1-[(1R,5S,8s)-3-azabicyclo[3.2.1]octan-8-yl]ethyl}amino)-4-(trifluoromethyl)phenyl]-1,3,4-oxadiazol-2(3H)-one hydrochloride], the IC50 in assay [1] was found to be 14 nM. In addition, the GI50 in assay [2] was 160 nM.

Take `C[C@H](Nc1cc(-c2n[nH]c(=O)o2)ccc1C(F)(F)F)C1CCCNCC1` (stereo partly drawn) [Example 157, 5-[3-{[(1S)-1-(azepan-4-yl)ethyl]amino}-4-(trifluoromethyl)phenyl]-1,3,4-oxadiazol-2(3H)-one hydrochloride]: the half-inhibitory concentration (IC50) in assay [1] turned out to be 3.3 nM. In assay [2], the GI50 worked out at 65 nM.

Consider `C[C@H](Nc1cc(-c2n[nH]c(=O)o2)ccc1Cl)[C@@H]1C[C@H](N)C1(C)C` [Example 158, 5-[3-({(1S)-1-[(1R,3S)-3-amino-2,2-dimethylcyclobutyl]ethyl}amino)-4-chlorophenyl]-1,3,4-oxadiazol-2(3H)-one hydrochloride], for which, in assay [1], the 50% inhibitory concentration (IC50) is 3.3 nM. Moreover, the GI50 in assay [2] stood at 37 nM.

Compound `C[C@H](Nc1cc(-c2n[nH]c(=O)o2)cc(F)c1C(F)(F)F)C1(F)CCNCC1` [Example 159, 5-[3-fluoro-5-{[(1S)-1-(4-fluoropiperidin-4-yl)ethyl]amino}-4-(trifluoromethyl)phenyl]-1,3,4-oxadiazol-2(3H)-one hydrochloride] registered an IC50 in assay [1] of 2.8 nM. Also, the GI50 in assay [2] turned out to be 30 nM.

In the case of `O=c1[nH]nc(-c2cc(F)c(C(F)(F)F)c(N[C@@H](CF)C3CCNCC3)c2)o1` [Example 160, 5-[3-fluoro-5-{[(1R)-2-fluoro-1-(piperidin-4-yl)ethyl]amino}-4-(trifluoromethyl)phenyl]-1,3,4-oxadiazol-2(3H)-one hydrochloride], in assay [1], the 50% inhibitory concentration (IC50) is 1.2 nM. For the same compound, the GI50 in assay [2] amounted to 40 nM.

For the compound `N[C@H]1CO[C@H](C2CC2c2cc(-c3n[nH]c(=O)o3)ccc2C(F)(F)F)OC1` (some centres unmarked) [Example 161, 5-[3-{2-[(2r,5r)-5-amino-1,3-dioxan-2-yl]cyclopropyl}-4-(trifluoromethyl)phenyl]-1,3,4-oxadiazol-2(3H)-one hydrochloride], the IC50 in assay [1] stood at 29 nM. For the same compound, the GI50 in assay [2] was 1000 nM.

In the case of `C[C@H](Nc1cc(-c2n[nH]c(=O)o2)ccc1C(F)(F)F)C1CCCNCCC1` [Example 162, 5-[3-{[(1S)-1-(azocan-5-yl)ethyl]amino}-4-(trifluoromethyl)phenyl]-1,3,4-oxadiazol-2(3H)-one hydrochloride], the IC50 in assay [1] stood at 8.7 nM. Further, the GI50 in assay [2] came to 140 nM.

`O=c1[nH]nc(-c2cc(F)c(C(F)(F)F)c(N[C@@H](C(F)F)C3(F)CCNCC3)c2)o1` [Example 163, 5-[3-{[(1R)-2,2-difluoro-1-(4-fluoropiperidin-4-yl)ethyl]amino}-5-fluoro-4-(trifluoromethyl)phenyl]-1,3,4-oxadiazol-2(3H)-one hydrochloride]: in assay [1], the IC50 was 2 nM. The GI50 in assay [2] turned out to be 24 nM.

As for `C[C@H](Nc1cc(-c2n[nH]c(=O)o2)cc(F)c1C(F)(F)F)[C@H]1C[C@@H](N)C1(C)C` [Example 164, 5-[3-({(1S)-1-[(1S,3R)-3-amino-2,2-dimethylcyclobutyl]ethyl}amino)-5-fluoro-4-(trifluoromethyl)phenyl]-1,3,4-oxadiazol-2(3H)-one hydrochloride], in assay [1], half-maximal inhibition (IC50) was put at 1.7 nM. Also, the GI50 in assay [2] is 25 nM.

Regarding `C[C@H](Nc1cc(-c2n[nH]c(=O)o2)cc(F)c1C(F)(F)F)[C@H]1C[C@@H](N)C1` [Example 165, 5-[3-({(1S)-1-[(1s,3R)-3-aminocyclobutyl]ethyl}amino)-5-fluoro-4-(trifluoromethyl)phenyl]-1,3,4-oxadiazol-2(3H)-one], the IC50 in assay [1] was 2.2 nM. Further, the GI50 in assay [2] was 25 nM.

Take `CC1(C)[C@H](CNc2cc(-c3n[nH]c(=O)o3)ccc2C(F)(F)F)C[C@@H]1N` [Example 166, 5-[3-({[(1R,3S)-3-amino-2,2-dimethylcyclobutyl]methyl}amino)-4-(trifluoromethyl)phenyl]-1,3,4-oxadiazol-2(3H)-one hydrochloride]: in assay [1], the midpoint of inhibition, the IC50, lay at 2.3 nM. Besides, the GI50 in assay [2] turned out to be 26 nM.

Compound `COc1c(F)cc(-c2n[nH]c(=O)o2)cc1N[C@@H](C)[C@H]1CC[C@H](N)CC1` [Example 167, 5-[3-({(1S)-1-[(1r,4S)-4-aminocyclohexyl]ethyl}amino)-5-fluoro-4-methoxyphenyl]-1,3,4-oxadiazol-2(3H)-one hydrochloride] returned an IC50 in assay [1] of 3.1 nM. In addition, the GI50 in assay [2] was 94 nM.

For the compound `C[C@H](Nc1cc(-c2n[nH]c(=O)o2)ccc1Cl)[C@H]1C[C@@H](N)C1(C)C` [Example 168, 5-[3-({(1S)-1-[(1S,3R)-3-amino-2,2-dimethylcyclobutyl]ethyl}amino)-4-chlorophenyl]-1,3,4-oxadiazol-2(3H)-one], in assay [1], the IC50 came to 10 nM. In addition, the GI50 in assay [2] is 110 nM.

As to `C[C@H](Nc1c(F)c(-c2n[nH]c(=O)o2)cc(F)c1Cl)[C@H]1CC[C@H](N)CC1` [Example 169, 5-[3-({(1S)-1-[(1r,4S)-4-aminocyclohexyl]ethyl}amino)-4-chloro-2,5-difluorophenyl]-1,3,4-oxadiazol-2(3H)-one hydrochloride], the concentration for half-maximal inhibition (IC50) in assay [1] was determined as 6.5 nM. Moreover, the GI50 in assay [2] stood at 310 nM.

In assay [1], `C[C@H](Nc1cc(-c2n[nH]c(=O)o2)cc(F)c1OC(F)(F)F)[C@H]1CC[C@H](N)CC1` [Example 170, 5-[3-({(1S)-1-[(1r,4S)-4-aminocyclohexyl]ethyl}amino)-5-fluoro-4-(trifluoromethoxy)phenyl]-1,3,4-oxadiazol-2(3H)-one hydrochloride] registered a 50% inhibitory concentration (IC50) of 1.8 nM. For the same compound, in assay [2], the GI50 is 17 nM.

Compound `C[C@H](Nc1cc(-c2n[nH]c(=O)o2)cc(Br)c1Cl)[C@H]1CC[C@H](N)CC1` [Example 171, 5-[3-({(1S)-1-[(1r,4S)-4-aminocyclohexyl]ethyl}amino)-5-bromo-4-chlorophenyl]-1,3,4-oxadiazol-2(3H)-one dihydrochloride] returned an IC50 in assay [1] of 2 nM. The GI50 in assay [2] was 28 nM.

With `CCOc1c(F)cc(-c2n[nH]c(=O)o2)cc1N[C@@H](C)[C@H]1CC[C@H](N)CC1` [Example 173, 5-[3-({(1S)-1-[(1r,4S)-4-aminocyclohexyl]ethyl}amino)-4-ethoxy-5-fluorophenyl]-1,3,4-oxadiazol-2(3H)-one dihydrochloride], the IC50 in assay [1] was 10 nM. The GI50 in assay [2] turned out to be 250 nM.

In assay [1], `C[C@H](Nc1cc(-c2n[nH]c(=O)o2)cc(Cl)c1Cl)[C@H]1CC[C@H](N)CC1` [Example 174, 5-[3-({(1S)-1-[(1r,4S)-4-aminocyclohexyl]ethyl}amino)-4,5-dichlorophenyl]-1,3,4-oxadiazol-2(3H)-one hydrochloride] returned an IC50 of 1.6 nM. Further, the GI50 in assay [2] was found to be 18 nM.

Turning to `CC(C)Oc1c(F)cc(-c2n[nH]c(=O)o2)cc1N[C@@H](C)[C@H]1CC[C@H](N)CC1` [Example 175, 5-{3-({(1S)-1-[(1r,4S)-4-aminocyclohexyl]ethyl}amino)-5-fluoro-4-[(propan-2-yl)oxy]phenyl}-1,3,4-oxadiazol-2(3H)-one dihydrochloride], the IC50 in assay [1] came out at 17 nM. Further, in assay [2], the GI50 was determined as 320 nM.

In turn, `CC1(C)[C@@H](CNc2cc(-c3n[nH]c(=O)o3)ccc2C(F)(F)F)C[C@H]1N` [Example 176, 5-[3-({[(1S,3R)-3-amino-2,2-dimethylcyclobutyl]methyl}amino)-4-(trifluoromethyl)phenyl]-1,3,4-oxadiazol-2(3H)-one] showed an IC50 in assay [1] of 9.6 nM. For the same compound, the GI50 in assay [2] worked out at 88 nM.

`C[C@H](Nc1cc(-c2n[nH]c(=O)o2)cc(F)c1Cl)[C@H]1C[C@@H](N)C1` [Example 178, 5-[3-({(1S)-1-[(1s,3R)-3-aminocyclobutyl]ethyl}amino)-4-chloro-5-fluorophenyl]-1,3,4-oxadiazol-2(3H)-one hydrochloride] came in with a half-inhibitory concentration (IC50) in assay [1] of 3.2 nM. Further, in assay [2], the GI50 was found to be 34 nM.
